In patent publication US20110256559A1, “Method for Detecting Soluble Amyloid Precursor Protein (APP) Alpha and/or Soluble APP Beta” (INSERM (Institut National de la Sante et de la Recherche …, priority 2008, published 2011):
“Also recorded” adds a separate entry of the source.

Tests used:
[1] = tested on: sAPPα; experiment: sAPPα HTRF assay in SH-SY5Y neuroblastoma cells conditioned medium; format: cell-based, human; conditions: for effect on PdBu-induced increase of sAPPα secretion: PKC activated by PdBu (FIG. 7)
Protocol: (§1) Four types of biological samples were investigated using the following procedure: human CSF, human blood serum, culture medium of neuroblastoma SH-SY5Y cell line treated with different drugs (for instance the PKC activator PdBu which stimulate the ADAM 17 alpha secretase activity), or conditioned culture medium from primary mouse cortical neurons.
(§2) All samples and calibrator were treated with 10 mM DTT on ice, during 30 min. In a 384-well low volume (20 μl) white plate, reagents were distributed in the following order: • 5 μl 150 mM phosphate buffer pH 7.0, 0.2% BSA. • 5 μl sample or calibrator, treated with DTT and diluted. • 5 μl MAB348 antibody, cryptate conjugate, diluted 1/250 with 50 mM phosphate buffer pH 7.0, 0.4M KF. • 5 μl 2B3 antibody, D2 conjugate, diluted 1/250 with 50 mM phosphate buffer pH 7.0, 0.4M KF.
The plate covered with a plate sealer was centrifuged (1000 g 1 min) and incubated overnight, at room temperature.
The plate sealer was removed, and the plate read on a compatible HTRF reader (Envision, Perkin Elmer), at […].
Results are calculated from 665 nm/620 nm ratio and expressed in delta F: […]
Delta F is proportional to the sAPPα concentration; Delta F obtained for samples can be reported on the calibration curve to deduce respective sAPPα concentration.
Different samples were submitted to the sAPPα HTRF assay with or without DTT treatment.
Numerous studies have shown that the sAPPα secretion is regulated by some intracellular signalisation pathway involving PKC and that the α-secretase responsible for this secretion is a disintegrin-metalloproteinase (ADAM 17).

[2] = tested on: sAPPα; experiment: sAPPα HTRF assay in primary cortical neurons conditioned medium; format: cell-based, mouse; conditions: primary neurons from transgenic mice expressing wild type human APP (FIG. 8)
Protocol: as §1, §2
Validation of the sAPPα HTRF Assay in Primary Cortical Neurons Conditioned Medium. (FIG. 8)

CC(C)C[C@H](CC(=O)NO)C(=O)N[C@@H](Cc1ccc2ccccc2c1)C(=O)N[C@@H](C)C(N)=O [TAPI 0] was tested, and the “effect on PdBu-induced increase of sAPPα secretion” value ([1]; SH-SY5Y conditioned medium) was “abolished”.

PACAP 1-27 was tested, and the “effect on sAPP alpha in the medium” value [2] was “increase of sAPP alpha”.

CN(C)CCCn1cc(C2=C(c3c[nH]c4ccccc34)C(=O)NC2=O)c2ccccc21 [GF 109203] was tested, and the “effect on PdBu-induced increase of sAPPα secretion” value ([1]; SH-SY5Y conditioned medium) was “abolished”.

With O=C(O[C@@H]1Cc2c(O)cc(O)cc2O[C@@H]1c1cc(O)c(O)c(O)c1)c1cc(O)c(O)c(O)c1 [EGCG] the “effect on sAPP alpha in the medium” value [2] was “increase of sAPP alpha”.

CCCC(=O)O[C@@H]1[C@@H](C)[C@@]2(O)[C@@H](C=C(CO)C[C@]3(O)C(=O)C(C)=C[C@@H]23)[C@@H]2C(C)(C)[C@]12OC(=O)CCC [PdBu] was tested, and the “effect on amount of sAPPα / sAPPα secretion” value ([1]; SH-SY5Y conditioned medium, samples pre-treated with DTT (FIG. 7)) was “activates the production of sAPPα; also recorded: increased”, the “sAPP alpha, Without DTT” value ([1]; conditioned medium of SH-SY5Y neuroblastoma cell line, no DTT pre-treatment, n=8) was 3.4 ± 0.4 ng/mL and the “sAPP alpha, With DTT” value ([1]; conditioned medium of SH-SY5Y neuroblastoma cell line, sample pre-treated with 10 mM DTT, n=8) was 59.1 ± 2.8 ng/mL. For the same compound, the “sAPPα Mean, inter assay reproducibility” value ([1]; conditioned medium, inter assay, 16 samples) was 61.4 ng/mL and the “sAPPα Mean, intra assay reproducibility” value ([1]; conditioned medium, intra assay, 8 samples) was 59.1 ng/mL.
